Experimental data taken from ChEMBL document CHEMBL1128907, “Platelet glycoprotein IIbIIIa receptor (GPIIbIIIa) antagonists derived from amidinoindoles” (Bioorg Med Chem Lett, 1996).
Square brackets hold non-standard residues; d marks the D form. Peptide text beside a SMILES is read from it. Pen = CC(C)(S)[C@H](N)C(=O)O; Mpa = O=C(O)CCS

Assays:
[1] = species: Homo sapiens; test: Functional inhibition of the GPIIb-IIIa receptor was reflected as its ability to antagonize ADP induced platelet aggregation in human platelet-rich plasma; assay type: organism-based
[2] = biological target: Integrin alpha-IIb/beta-3 (Homo sapiens, UniProt P05106+P08514); test: Inhibition of platelet glycoprotein alpha IIb beta-3 integrin in ELISA
Integrin alpha-IIb/beta-3, sequence (P05106 27-788 limits assumed): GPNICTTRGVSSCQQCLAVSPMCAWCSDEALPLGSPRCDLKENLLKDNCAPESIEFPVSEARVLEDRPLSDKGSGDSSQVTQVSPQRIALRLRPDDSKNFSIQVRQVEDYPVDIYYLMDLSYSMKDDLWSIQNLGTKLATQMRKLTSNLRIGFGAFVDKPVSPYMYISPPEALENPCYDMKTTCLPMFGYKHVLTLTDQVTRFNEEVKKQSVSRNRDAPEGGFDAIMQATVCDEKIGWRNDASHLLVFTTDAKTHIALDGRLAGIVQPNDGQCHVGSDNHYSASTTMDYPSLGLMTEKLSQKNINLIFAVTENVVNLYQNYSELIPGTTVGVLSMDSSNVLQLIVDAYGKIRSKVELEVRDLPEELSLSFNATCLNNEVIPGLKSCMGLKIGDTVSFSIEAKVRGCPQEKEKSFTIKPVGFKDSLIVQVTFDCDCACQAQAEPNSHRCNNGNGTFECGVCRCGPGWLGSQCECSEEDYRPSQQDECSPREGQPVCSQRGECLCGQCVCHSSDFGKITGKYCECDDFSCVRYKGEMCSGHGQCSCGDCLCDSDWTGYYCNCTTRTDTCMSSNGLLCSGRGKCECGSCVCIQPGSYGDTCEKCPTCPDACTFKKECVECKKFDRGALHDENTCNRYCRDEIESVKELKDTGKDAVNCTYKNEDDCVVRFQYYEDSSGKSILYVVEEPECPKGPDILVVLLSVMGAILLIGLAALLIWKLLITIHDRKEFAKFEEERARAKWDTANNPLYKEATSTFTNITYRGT
Integrin alpha-IIb/beta-3, sequence (P08514 32-887 limits assumed): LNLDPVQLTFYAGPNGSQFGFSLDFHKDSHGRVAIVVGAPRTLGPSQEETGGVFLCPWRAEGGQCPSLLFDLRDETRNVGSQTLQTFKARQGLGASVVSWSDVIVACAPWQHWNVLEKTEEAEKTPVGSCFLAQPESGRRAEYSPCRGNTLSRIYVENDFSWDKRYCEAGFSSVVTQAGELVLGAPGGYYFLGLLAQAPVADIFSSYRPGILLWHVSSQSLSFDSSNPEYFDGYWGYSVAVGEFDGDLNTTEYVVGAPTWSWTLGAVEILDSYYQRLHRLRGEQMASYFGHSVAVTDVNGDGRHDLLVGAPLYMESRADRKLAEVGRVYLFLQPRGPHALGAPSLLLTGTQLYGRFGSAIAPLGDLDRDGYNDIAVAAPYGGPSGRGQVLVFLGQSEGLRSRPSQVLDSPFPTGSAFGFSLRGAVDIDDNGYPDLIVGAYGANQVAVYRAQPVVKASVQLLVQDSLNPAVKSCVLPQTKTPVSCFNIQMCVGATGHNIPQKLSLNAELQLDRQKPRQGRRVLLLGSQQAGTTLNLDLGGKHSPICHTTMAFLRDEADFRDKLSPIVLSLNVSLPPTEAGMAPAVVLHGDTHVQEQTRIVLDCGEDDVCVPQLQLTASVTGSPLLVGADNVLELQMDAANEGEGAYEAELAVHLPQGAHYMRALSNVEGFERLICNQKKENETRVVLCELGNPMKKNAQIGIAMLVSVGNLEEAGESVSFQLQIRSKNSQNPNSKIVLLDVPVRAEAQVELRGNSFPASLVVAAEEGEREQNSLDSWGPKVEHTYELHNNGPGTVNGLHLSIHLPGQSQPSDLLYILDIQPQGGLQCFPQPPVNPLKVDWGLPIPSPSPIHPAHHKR
Integrin alpha-IIb/beta-3, sequence (P08514 891-1039 limits assumed): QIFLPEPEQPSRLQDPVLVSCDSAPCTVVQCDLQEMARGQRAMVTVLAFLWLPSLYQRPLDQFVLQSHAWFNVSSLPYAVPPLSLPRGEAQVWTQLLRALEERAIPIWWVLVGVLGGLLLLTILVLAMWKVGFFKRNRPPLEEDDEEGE

| IC50 [1] [nM] | IC50 [2] [µM] | Structure (SMILES) |
| --- | --- | --- |
| > 100000 | > 100 | N=C(N)c1ccc2[nH]cc(C(=O)NCCCCCCCC(=O)O)c2c1 |
| 650 | 0.1 | N=C(N)c1ccc2c(C(=O)NCCCCCCC(=O)O)c[nH]c2c1 |
| > 100000 | – | N=C(N)c1ccc2[nH]c(C(=O)NCCCCCCCC(=O)O)cc2c1 |
| 2700 | – | N=C(N)c1ccc2[nH]c(C(=O)NCCCCCCC(=O)O)cc2c1 |
| > 100000 | 64 | N=C(N)c1cccc(NCC(=O)NCCCCCCC(=O)O)c1 |
| 280 | 0.12 | CC(C)(S)[C@H](NC(=O)[C@H](CCCN=C(N)N)NC(=O)[C@H](Cc1c[nH]c2ccccc12)NC(=O)[C@H](CC(=O)O)NC(=O)CNC(=O)[C@H](CCCN=C(N)N)NC(=O)CCS)C(N)=O ([Mpa]RGDWR[Pen]-NH2) |
| > 100000 | > 100 | N=C(N)c1ccc2[nH]cc(C(=O)NCCCCCCC(=O)O)c2c1 |
| > 100000 | 30 | N=C(N)c1ccc2[nH]c(C(=O)NCCCCCC(=O)O)cc2c1 |
| 67000 | – | N=C(N)c1ccc(NCC(=O)NCCCCCCC(=O)O)cc1 |
| 1300 | 0.15 | N=C(N)c1ccc2cc(C(=O)NCCCCCCC(=O)O)[nH]c2c1 |
